Source: ChEMBL document CHEMBL5465560, “Selectivity Literature for EUbOPEN Chemogenomic Library” (2024)
Each block holds one compound with its values, some of them ahead of it.

What was measured:
[1] = target: Mitogen-activated protein kinase 14 (Homo sapiens, UniProt Q16539); experiment: Selectivity interaction (ActivX KiNativ screen (kinase selectivity in THP-1 cell lysates)) EUB0000639a MAPK14; assay type: subcellular; settings: lysate, at 5 µM
[2] = target: Cyclin-Y/Cyclin-dependent kinase 16 (Homo sapiens) (UniProt Q00536+Q8ND76); experiment: Selectivity interaction (LanthaScreen Eu Kinase Binding Assay) EUB0001632a CDK16; assay type: protein-complex assay; settings: at 10 µM
[3] = target: Interleukin-1 receptor-associated kinase 1 (Homo sapiens) (UniProt P51617); experiment: Selectivity interaction (Adapta Assay) EUB0001632a IRAK1; settings: at 10 µM
Sequence of Interleukin-1 receptor-associated kinase 1 (Homo sapiens) (P51617 whole entry, looked up): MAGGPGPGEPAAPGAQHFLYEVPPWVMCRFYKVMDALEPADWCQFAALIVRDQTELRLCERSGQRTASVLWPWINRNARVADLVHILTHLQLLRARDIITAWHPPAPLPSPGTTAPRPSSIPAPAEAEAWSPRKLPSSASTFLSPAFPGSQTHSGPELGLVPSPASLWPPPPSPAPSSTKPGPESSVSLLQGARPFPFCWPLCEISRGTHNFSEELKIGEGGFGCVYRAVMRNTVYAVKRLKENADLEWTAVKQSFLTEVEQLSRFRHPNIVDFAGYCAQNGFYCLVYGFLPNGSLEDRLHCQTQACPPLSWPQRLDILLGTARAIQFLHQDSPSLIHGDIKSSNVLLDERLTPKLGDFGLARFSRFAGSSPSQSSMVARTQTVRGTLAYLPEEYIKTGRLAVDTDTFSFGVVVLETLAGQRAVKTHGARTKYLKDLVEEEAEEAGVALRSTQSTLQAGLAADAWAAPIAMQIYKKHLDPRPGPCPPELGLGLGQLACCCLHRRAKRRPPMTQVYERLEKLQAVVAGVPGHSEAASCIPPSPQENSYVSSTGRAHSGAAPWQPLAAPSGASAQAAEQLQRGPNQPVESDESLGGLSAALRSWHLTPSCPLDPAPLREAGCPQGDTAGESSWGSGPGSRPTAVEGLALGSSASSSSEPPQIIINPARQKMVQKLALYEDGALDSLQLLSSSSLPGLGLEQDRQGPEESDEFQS

[4] = target: T1, Serine/threonine-protein kinase ULK1 (Homo sapiens) (UniProt O75385); experiment: Selectivity interaction (KinomeScan (DiscoverX)) EUB0000229b ULK1; settings: at 10 µM
T1 sequence (whole entry): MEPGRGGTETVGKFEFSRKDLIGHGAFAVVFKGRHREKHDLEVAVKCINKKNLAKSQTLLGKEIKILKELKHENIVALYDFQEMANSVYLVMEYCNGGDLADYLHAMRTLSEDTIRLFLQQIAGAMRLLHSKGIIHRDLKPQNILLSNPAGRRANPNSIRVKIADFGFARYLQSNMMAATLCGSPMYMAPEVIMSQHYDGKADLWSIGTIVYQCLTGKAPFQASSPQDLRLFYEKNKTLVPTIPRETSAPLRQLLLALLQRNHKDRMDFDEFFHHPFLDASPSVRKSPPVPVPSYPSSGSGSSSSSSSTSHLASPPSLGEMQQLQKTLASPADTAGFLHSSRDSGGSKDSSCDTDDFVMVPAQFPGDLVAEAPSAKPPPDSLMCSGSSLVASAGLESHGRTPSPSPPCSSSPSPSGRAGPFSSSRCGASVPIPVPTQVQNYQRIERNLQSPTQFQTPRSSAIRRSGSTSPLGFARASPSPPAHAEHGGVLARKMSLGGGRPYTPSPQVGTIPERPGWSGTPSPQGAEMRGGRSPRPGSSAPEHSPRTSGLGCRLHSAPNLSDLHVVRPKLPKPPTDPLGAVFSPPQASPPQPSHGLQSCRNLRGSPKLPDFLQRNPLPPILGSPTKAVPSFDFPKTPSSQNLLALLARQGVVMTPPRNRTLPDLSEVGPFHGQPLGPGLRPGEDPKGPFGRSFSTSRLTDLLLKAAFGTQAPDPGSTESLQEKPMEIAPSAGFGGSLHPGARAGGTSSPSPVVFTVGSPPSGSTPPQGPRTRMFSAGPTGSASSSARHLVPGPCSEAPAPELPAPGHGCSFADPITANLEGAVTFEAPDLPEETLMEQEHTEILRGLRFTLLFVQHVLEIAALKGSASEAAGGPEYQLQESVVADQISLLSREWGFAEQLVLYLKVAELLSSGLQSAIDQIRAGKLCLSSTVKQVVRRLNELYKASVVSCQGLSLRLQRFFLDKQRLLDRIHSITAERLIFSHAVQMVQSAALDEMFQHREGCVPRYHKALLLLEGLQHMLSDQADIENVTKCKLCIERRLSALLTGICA

[5] = target: cAMP-dependent protein kinase catalytic subunit beta (Homo sapiens) (UniProt P22694); experiment: Selectivity interaction (KinomeScan (DiscoverX)) EUB0001079a PRKACB; settings: at 1 µM
[6] = target: Tyrosine-protein kinase SYK (Homo sapiens, UniProt P43405); experiment: Selectivity interaction (Upstate Kinase Profiler service (Millipore)) EUB0000056c SYK; settings: at 1 µM
[7] = target: LIM domain kinase 2 (Homo sapiens) (UniProt P53671); experiment: Selectivity interaction (KinomeScan (DiscoverX)) EUB0000655a LIMK2; settings: at 10 µM
Sequence of LIM domain kinase 2 (Homo sapiens) (P53671 whole entry, looked up, the tested form may be a part): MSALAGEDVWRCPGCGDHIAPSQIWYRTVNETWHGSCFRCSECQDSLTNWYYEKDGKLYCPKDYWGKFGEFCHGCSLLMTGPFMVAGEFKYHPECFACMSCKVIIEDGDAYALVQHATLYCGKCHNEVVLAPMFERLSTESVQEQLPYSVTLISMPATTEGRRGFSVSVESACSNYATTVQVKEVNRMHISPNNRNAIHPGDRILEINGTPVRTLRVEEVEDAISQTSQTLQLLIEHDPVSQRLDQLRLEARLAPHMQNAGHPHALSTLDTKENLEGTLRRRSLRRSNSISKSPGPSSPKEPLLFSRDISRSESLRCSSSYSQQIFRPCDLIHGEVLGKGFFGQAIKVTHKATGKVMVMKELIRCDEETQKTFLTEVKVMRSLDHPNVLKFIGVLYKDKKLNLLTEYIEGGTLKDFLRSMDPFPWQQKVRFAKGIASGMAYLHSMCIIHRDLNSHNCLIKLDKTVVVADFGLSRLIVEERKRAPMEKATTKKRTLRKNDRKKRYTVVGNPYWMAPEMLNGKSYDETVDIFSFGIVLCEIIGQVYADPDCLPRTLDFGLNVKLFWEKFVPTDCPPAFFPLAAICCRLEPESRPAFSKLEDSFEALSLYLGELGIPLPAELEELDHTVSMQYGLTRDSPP

[8] = target: T2, Atypical kinase COQ8B, mitochondrial (Homo sapiens) (UniProt Q96D53); experiment: Selectivity interaction (KinomeScan (DiscoverX)) EUB0000618a ADCK4; settings: at 10 µM
T2 sequence (whole entry): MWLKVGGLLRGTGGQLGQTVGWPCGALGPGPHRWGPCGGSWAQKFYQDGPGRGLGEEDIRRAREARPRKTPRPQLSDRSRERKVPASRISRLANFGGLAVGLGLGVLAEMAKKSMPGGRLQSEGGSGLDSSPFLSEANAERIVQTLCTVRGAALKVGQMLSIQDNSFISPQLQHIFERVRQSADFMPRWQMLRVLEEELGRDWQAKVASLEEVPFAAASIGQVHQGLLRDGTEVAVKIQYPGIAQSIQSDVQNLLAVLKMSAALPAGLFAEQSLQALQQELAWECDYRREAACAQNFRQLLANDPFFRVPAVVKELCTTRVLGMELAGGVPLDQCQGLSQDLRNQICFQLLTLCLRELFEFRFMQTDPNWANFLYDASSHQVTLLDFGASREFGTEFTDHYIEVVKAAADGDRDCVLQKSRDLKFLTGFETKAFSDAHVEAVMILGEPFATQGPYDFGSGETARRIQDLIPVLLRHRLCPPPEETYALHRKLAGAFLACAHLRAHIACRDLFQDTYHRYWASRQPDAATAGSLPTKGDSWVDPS

[9] = target: T3, MAP kinase-activated protein kinase 5 (Homo sapiens) (UniProt Q8IW41); experiment: Selectivity interaction (KinomeScan (DiscoverX)) EUB0000618a MAPKAPK5; settings: at 10 µM
T3 sequence (whole entry): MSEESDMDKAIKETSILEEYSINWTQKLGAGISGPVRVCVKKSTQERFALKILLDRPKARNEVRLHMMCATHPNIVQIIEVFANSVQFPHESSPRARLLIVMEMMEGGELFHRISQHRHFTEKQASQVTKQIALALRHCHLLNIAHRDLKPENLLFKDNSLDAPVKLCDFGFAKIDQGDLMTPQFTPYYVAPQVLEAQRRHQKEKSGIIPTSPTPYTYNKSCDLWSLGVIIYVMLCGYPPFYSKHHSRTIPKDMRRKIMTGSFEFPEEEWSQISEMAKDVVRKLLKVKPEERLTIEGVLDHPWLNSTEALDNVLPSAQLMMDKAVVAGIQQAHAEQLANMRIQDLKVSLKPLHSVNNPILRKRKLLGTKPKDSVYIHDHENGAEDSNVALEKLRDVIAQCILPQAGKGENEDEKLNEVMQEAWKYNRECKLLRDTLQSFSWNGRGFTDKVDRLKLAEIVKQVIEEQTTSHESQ

[10] = target: T1, Serine/threonine-protein kinase ULK1 (Homo sapiens); experiment: Selectivity interaction (Kinase panel (DSF assay)) EUB0001559a ULK1

Sequence of Mitogen-activated protein kinase 14 (Q16539 whole entry): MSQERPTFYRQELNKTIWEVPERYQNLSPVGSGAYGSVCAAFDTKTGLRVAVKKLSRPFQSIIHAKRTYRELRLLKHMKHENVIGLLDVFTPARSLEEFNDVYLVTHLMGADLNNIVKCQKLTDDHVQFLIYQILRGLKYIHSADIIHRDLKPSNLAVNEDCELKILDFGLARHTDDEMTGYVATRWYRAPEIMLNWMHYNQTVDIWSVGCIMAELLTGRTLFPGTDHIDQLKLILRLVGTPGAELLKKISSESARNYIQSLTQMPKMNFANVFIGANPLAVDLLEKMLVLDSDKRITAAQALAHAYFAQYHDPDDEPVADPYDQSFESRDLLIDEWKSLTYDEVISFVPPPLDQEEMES

- % of inhibition [1]: -3.8%
Structure (SMILES): CC[C@@H]1[C@H](F)C(=O)N[C@@H]1COc1nccc2cc(C(N)=O)c(OC)cc12 [ZIMLOVISERTIB]

- % of inhibition [2]: 15%
- % of inhibition [3]: -6.48%
Structure (SMILES): Cn1cc(-n2cnc3c(NCc4nc5cc(Cl)c(Cl)cc5[nH]4)nc(N4CCOCC4)nc32)cn1

- % of inhibition [6]: -7%
Structure (SMILES): Cc1ccc(-c2ccc3c(ccc4sc5c(c43)NC[C@@H](C)NC5=O)n2)cn1

- dTM [10]: -1 K
Structure (SMILES): CN(C(=O)c1cnn2cccnc12)c1cc2c(cc1N1CCOCC1)C(=O)N(C[C@@H](F)C(C)(C)O)C2

Second part, the compound before the results:

Structure (SMILES): COc1cc(N(C)c2ccnc3ccc(C(F)(F)F)cc23)cc(OC)c1OC
- % binding [4]: 73%

Structure (SMILES): Nc1cnc(N2CCc3cc(S(=O)(=O)Nc4c(F)cc(Cl)cc4F)cc(N4CCCC4=O)c32)nc1 [TP-020n]
- % of control [5]: 100%

Structure (SMILES): CN(C)CCOc1ccc(-c2nc(-c3ccncc3)c(-c3ccc4c(c3)CC/C4=N\O)[nH]2)cc1
- % of control [7]: 79%

Structure (SMILES): O[C@H]1CC[C@H](Nc2ncc3nc(Nc4c(F)cc(F)cc4F)n([C@H]4CCOC4)c3n2)CC1
- % of control [8]: 87%
- % of control [9]: 100%
